Experimental data as given in PMC6272152, “The Role of Phosphoglycans in the Susceptibility of Leishmania mexicana to the Temporin Family of Anti-Microbial Peptides” (Molecules, 2015).

Tests used:
[1] = tested on: L. mexicana ∆lpg2 promastigotes (lacking LPG and PPG); test: alamarBlue viability assay, ∆lpg2 mutant promastigotes; format: cell-based, Leishmania mexicana; settings: for ED50 L. mexicana ∆lpg2: ∆lpg2 mutant promastigotes, alamarBlue viability vs DMSO control, 2–100 µM peptide, 1 h preincubation serum-free at 26 °C, then 24 h, mean (range) of at least 3 independent experiments in triplicate
Experimental: (§1) Figure 2 Activity of the temporin peptides against ∆lpg1 and ∆lpg2 promastigote L. mexicana. Using the alamarBlue® assay system, L. mexicana ∆lpg1 (A) and ∆lpg2 (B) mutant promastigote viability in the presence of various concentrations (2–100 µM) of the temporin peptides was determined with respect to a DMSO control. Amphotericin B (2–100 µM) was utilized as a positive control. Data points represent the mean of 3 independent experiments performed in triplicate. Standard deviation indicated. Cell viability <50% indicated by red bars.
Proteophosphogylcans (PPGs) are a large range of secreted and cell surface associated parasite glycoconjugates which, like LPG, carry a negative charge. Both axenic and intramacrophage L. mexicana amastigotes lack cell surface associated PPG, although the intracellular parasites do secrete a form of PPG known as aPPG [26, 27]. Targeted deletion of lpg2, a Golgi GDP-Man transporter, to create ∆lpg2 [25] prevented the formation of the phosphoglycan repeats that make up the backbone of LPG and PPG leaving the promastigote surface devoid of these negatively charged macromolecules. […] Like the temporins, amphotericin B is a pore forming compound [28].
(§2) Leishmania mexicana (MNYC/BZ/62/M379) wild type and LPG mutant parasites (∆lpg1 [23] and ∆lpg2 [25]) were maintained at 26 °C in Schneider’s Drosophila media (Sigma Aldrich) supplemented with heat inactivated foetal bovine sera (15% for promastigotes and mutants, and 20% for amastigotes; Biosera). Promastigotes were transformed into axenic amastigotes by a pH and temperature shift as previously described. Cells were counted using a Neubauer Improved Haemocytometer. Cytotoxicity analyses were performed in 96-well plates (Costar, Corning Inc., Amsterdam, The Netherlands) using alamarBlue® (Life Technologies, Paisley, UK) with some modifications to the published, optimized protocol. Briefly, to mitigate against the effects of serum on the efficacy of the peptides, promastigote and amastigote L. mexicana were preincubated (26 °C for promatastigotes; 33 °C for amastigotes) with the temporins (2–100 µM) in 10 µL of serum-free media at 4 × 10^6 mL^−1 for 1 h before the addition of 90 µL of complete media. Following incubation at the appropriate temperature for 24 h, 10 µL of alamarBlue® was added to each well and the plates incubated for a further 4 h prior to assessing cell viability using a fluorescent plate reader (Biotek UK, Potton, UK; 560EX nm/600EM nm). All data points were in triplicate, with amphotericin B as positive and DMSO as negative controls. All of the experiments described above were carried out on a minimum of three separate occasions to ensure a robust data set was collected.

[2] = tested on: L. mexicana promastigote (wild type); test: alamarBlue viability assay, wild type promastigotes; format: cell-based, Leishmania mexicana (MNYC/BZ/62/M379); settings: alamarBlue viability vs DMSO control, 2–100 µM peptide, 1 h preincubation in serum-free media at 26 °C, then complete media 24 h, alamarBlue 4 h, fluorescence, mean (range) of at least 3 independent experiments in triplicate
Experimental: as §1, with “Figure 1” for “Figure 2”, “against wild type promastigote” for “against ∆lpg1”, “and amastigote” for “and ∆lpg2 promastigote”, “mexicana promastigote” for “mexicana ∆lpg1”, “and amastigote” for “and ∆lpg2”, “(B)” for “(B) mutant promastigote”
as §2

L. mexicana amastigote = test: alamarBlue viability assay, axenic amastigotes; format: cell-based, Leishmania mexicana (MNYC/BZ/62/M379); settings: for ED50 L. mexicana Amastigote: alamarBlue viability vs DMSO control, 2–100 µM peptide, 1 h preincubation in serum-free media at 33 °C, then complete media 24 h, alamarBlue 4 h, fluorescence, mean (range) of at least 3 independent experiments in triplicate
Experimental: as §1, with “Figure 1” for “Figure 2”, “against wild type promastigote” for “against ∆lpg1”, “and amastigote” for “and ∆lpg2 promastigote”, “mexicana promastigote” for “mexicana ∆lpg1”, “and amastigote” for “and ∆lpg2”, “(B)” for “(B) mutant promastigote”
as §2

[3] = tested on: L. mexicana ∆lpg1 promastigotes (lacking LPG); test: alamarBlue viability assay, ∆lpg1 mutant promastigotes; format: cell-based, Leishmania mexicana; settings: alamarBlue viability vs DMSO control, 2–100 µM peptide, 1 h preincubation serum-free at 26 °C, then 24 h, mean (range) of at least 3 independent experiments in triplicate
Experimental: Previously it has been postulated that LPG, which forms a thick negatively charged layer, protects the promatigote parasite from cationic AMPs by capturing them and preventing interaction with the cell surface. […] To test this hypothesis the five temporins were assayed for their activity against L. mexicana promastigotes engineered to lack LPG, ∆lpg1 [23]. […] The results obtained were perhaps surprising, with the temporins showing little or no difference in efficacy against the ∆lpg1 mutant when compared with the wild type L. mexicana promastigotes (Figure 1A and Figure 2A; Table 2). However, it is notable the that efficacy of temporins A and B have previously been reported to be unchanged against a similar, although less defined, L. donovani LPG mutant.
as §1, §2

[4] = tested on: L. infantum axenic amastigotes; settings: cited from earlier work
Description: (§3) L. infantum is an Old World species and a member of the L. donovani complex, causing visceral disease in the Mediterranean basin, which has subsequently spread to Latin America where it is sometimes known as L. chagasi. Like L. mexicana, L. pifanoi is a New World species, however it is part of the subgenus Viannia whereas L. mexicana is part of the subgenus Leishmania which actually makes it ...

[5] = tested on: L. pifanoi axenic amastigotes; settings: cited from earlier work
Description: as §3

L. donovani LPG mutant = settings: similar, less defined LPG mutant; cited from earlier work
Description: Previously it has been postulated that LPG, which forms a thick negatively charged layer, protects the promatigote parasite from cationic AMPs by capturing them and preventing interaction with the cell surface. […] To t ...

Compound	ED50 L. mexicana Promastiogte [2]	ED50 L. mexicana Amastigote (L. mexicana amastigote)	ED50 L. mexicana ∆lpg1 [3]	ED50 L. mexicana ∆lpg2 [1]	activity against axenic amastigotes of L. pifanoi [5]	efficacy against L. donovani LPG mutant (L. donovani LPG mutant)	further results
C[C@@H]1[C@H](O)[C@@H](C)/C=C/C=C/C=C/C=C/C=C/C=C/C=C/[C@H](O[C@@H]2O[C@H](C)[C@@H](O)[C@H](N)[C@@H]2O)C[C@@H]2O[C@](O)(C[C@@H](O)C[C@@H](O)[C@H](O)CC[C@@H](O)C[C@@H](O)CC(=O)O[C@H]1C)C[C@H](O)[C@H]2C(=O)O [amphotericin B, Amphotericin B, reference compound]							efficacy against ∆lpg2 compared with wild type promastigotes ([1]; positive control, 2–100 µM, alamarBlue, Figure 2B): less effective
FLSGIVGMLGKLF-NH2 [Temporin 1Sa, amphibian-derived temporin antimicrobial peptide, […]-NH2]	4 (3–13) µM	42 (35–44) µM	6 (3–18) µM	31 (28–35) µM			ED50 L. mexicana Promastiogte ([2]; listed as temporin 1Sa): 4 µM; ED50 L. mexicana Amastigote (L. mexicana amastigote; listed as 1Sa): 42 µM; ED50 L. mexicana ∆lpg2 ([1]; listed as 1Sa): 31 µM; activity against axenic amastigotes of L. infantum [4]: significant activity
FVQWFSKFLGRIL-NH2 [Temporin L, amphibian-derived temporin antimicrobial peptide, …-NH2]	5 (5–6) µM	83 (46–93) µM	4 (3–6) µM	9 (8–12) µM			ED50 L. mexicana Promastiogte ([2]; listed as L): 5 µM; ED50 L. mexicana Amastigote (L. mexicana amastigote; listed as L): 83 µM; ED50 L. mexicana ∆lpg2 ([1]; listed as L): 9 µM
LLPIVGNLLKSLL-NH2 [Temporin B, amphibian-derived temporin antimicrobial peptide, […]-NH2]	38 (24–64) µM	>100 µM	39 (28–70) µM	41 (40–41) µM	significant activity	unchanged	ED50 L. mexicana Promastiogte ([2]; listed as temporin B): 38 µM; activity against amastigote form at the maximal concentration tested (L. mexicana amastigote; 100 µM, alamarBlue): inactive
FLPLIGRVLSGIL-NH2 [Temporin A, amphibian-derived temporin antimicrobial peptide, […]-NH2]	8 (6–14) µM	~100 µM	11 (8–16) µM	26 (21–39) µM	significant activity	unchanged	ED50 L. mexicana Promastiogte ([2]; listed as temporin A): 8 µM; ED50 L. mexicana Amastigote (L. mexicana amastigote; listed as temporin A): approximately 100 µM; ED50 L. mexicana ∆lpg2 ([1]; listed as temporin A): 26 µM
